# Data as given in paper PMC6895203, “Conformational pathway provides unique sensitivity to a synaptic mGluR” (Nature Communications, 2019).
# Values joined by “and” are separate entries in the source; they are usually repeats but may differ in a detail not shown here. Equal entries are not always repeated.
# What was measured:
# [1] = target: T1, SNAP-mGluR2(F756D)/mGluR7 heterodimer (Rattus norvegicus, UniProt P31421+P35400, F756D); test: Whole-cell patch clamp of GIRK1 current, trans-activation in SNAP-mGluR2(F756D)/mGluR7; format: cell-based; conditions: for glutamate GIRK concentration-response relation compared to mGluR2/2: patch clamp
# T1 construct: HA (N); expressed in transfected cells; host or cells: HEK293 / HEK293T
# Excerpt: We explored this further by examining trans-activation, whereby binding of ligand to one subunit activates G-protein interaction in the partner subunit[46],[47]. To specifically activate only the mGluR2 subunit of the mGluR2/7 heterodimer, we selectively attached a photoswitched tethered ligand to mGluR2. […] SNAP-mGluR2(F756D) was co-expressed with wild-type mGluR7 along with the GIRK1 channel.
# Illumination was applied to the entire field of view using either a Polychrome V monochromator (TILL Photonics) through a 20× objective, or a Lambda DG4 high-speed wavelength switcher (Sutter Instruments) with 380 nm and 500 nm filters through a 40× objective. pClamp software was used for both data acquisition and control of illumination.
# mGluR5(YADA) homodimer = conditions: 10 mM glutamate ref 46; cited from earlier work
# [2] = target: SNAP-mGluR2/SNAP-mGluR2 homodimer (mGluR2/2) (Rattus norvegicus, UniProt P31421); test: Live-cell ensemble FRET of SNAP-mGluR2/2 homodimer in HEK293T cells; format: cell-based; set-up: HA (N); made in house; host or cells: HEK293T; conditions: for normalized FRET response (Figure 3c titration), AVG: left block
# Experimental: (§1) After labeling, cells were mounted on an upright, scanning confocal microscope (Zeiss LSM 780) and imaged with a 20X objective. […] Clusters of cells were analyzed together and FRET was calculated as FRET = (IA)/(ID + IA), in which ID is the fluorescence donor intensity and IA is the fluorescence acceptor intensity. […] Fitting of dose–response curves was performed using Prism (Graphpad). […] Drugs were delivered with a gravity-driven perfusion system.
# [3] = target: T2, CLIP-mGluR2/SNAP-mGluR7 heterodimer (mGluR2/7) (Rattus norvegicus, UniProt P31421+P35400); test: Live-cell ensemble FRET of mGluR2/7 heterodimer in HEK293 cells; format: cell-based; set-up: Flag (N); HA (N); made in house; host or cells: HEK293T; conditions: for normalized FRET response (Figure 3c titration), AVG: right block
# Experimental: The co-expression of SNAP-mGluR7 and CLIP-mGluR2 is expected to yield three dimer stoichiometries: the homodimeric SNAP-mGluR7/SNAP-mGluR7; the homodimeric CLIP-mGluR2/CLIP-mGluR2, and the heterodimeric SNAP-mGluR7/CLIP-mGluR2. Of these, only the heterodimer combines the donor and acceptor and produces a FRET signal.
# as §1
# [4] = target: SNAP-mGluR7/SNAP-mGluR7 homodimer (mGluR7/7) (Rattus norvegicus, UniProt P35400); test: smFRET on isolated immune-purified SNAP-mGluR7/7 dimers; conditions: read-out: EC50 of low FRET peak concentration-response (apparent affinity); smFRET, isolated receptor
# [5] = target: T2, CLIP-mGluR2/SNAP-mGluR7 heterodimer (mGluR2/7); test: smFRET on isolated CLIP-mGluR2/SNAP-mGluR7 heterodimers
# [6] = target: SNAP-mGluR2/SNAP-mGluR2 (mGluR2/2) (Rattus norvegicus, UniProt P31421); test: Whole-cell patch clamp of GIRK1 current, mGluR2/2 homodimer; conditions: mGluR2/2+GIRK; for titration values, single replicates 1-3: individual replicates; for titration values, AVG (normalized response): Supplemental Figure 1a
# Chain of SNAP-mGluR2/SNAP-mGluR2 (mGluR2/2) (P31421 19-872): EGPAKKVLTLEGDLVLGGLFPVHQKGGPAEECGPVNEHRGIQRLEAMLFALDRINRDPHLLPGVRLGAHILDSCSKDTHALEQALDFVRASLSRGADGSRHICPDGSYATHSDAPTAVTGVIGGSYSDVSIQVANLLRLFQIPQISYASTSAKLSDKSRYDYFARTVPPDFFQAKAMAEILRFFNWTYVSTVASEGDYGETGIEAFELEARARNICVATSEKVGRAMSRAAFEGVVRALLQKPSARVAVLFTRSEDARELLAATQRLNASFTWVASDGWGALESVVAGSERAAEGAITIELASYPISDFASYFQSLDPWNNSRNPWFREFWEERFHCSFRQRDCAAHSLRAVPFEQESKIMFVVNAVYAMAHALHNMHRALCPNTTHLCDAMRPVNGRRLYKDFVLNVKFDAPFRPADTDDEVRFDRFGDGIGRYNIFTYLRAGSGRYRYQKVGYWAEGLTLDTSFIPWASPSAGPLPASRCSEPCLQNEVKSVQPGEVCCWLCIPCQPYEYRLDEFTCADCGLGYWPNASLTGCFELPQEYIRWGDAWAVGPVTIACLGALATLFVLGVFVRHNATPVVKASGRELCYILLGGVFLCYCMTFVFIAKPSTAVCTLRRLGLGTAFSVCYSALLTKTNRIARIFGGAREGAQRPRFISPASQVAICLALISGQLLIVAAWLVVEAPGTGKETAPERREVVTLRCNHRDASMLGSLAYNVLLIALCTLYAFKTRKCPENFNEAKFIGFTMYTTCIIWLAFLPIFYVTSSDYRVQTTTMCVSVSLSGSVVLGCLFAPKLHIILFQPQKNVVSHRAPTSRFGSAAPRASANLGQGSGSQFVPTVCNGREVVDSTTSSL
# T1 sequence (P31421 19-872 F756D): as the sequence (P31421 19-872) above, with F738D counted along it
# T1 sequence (P35400 35-915): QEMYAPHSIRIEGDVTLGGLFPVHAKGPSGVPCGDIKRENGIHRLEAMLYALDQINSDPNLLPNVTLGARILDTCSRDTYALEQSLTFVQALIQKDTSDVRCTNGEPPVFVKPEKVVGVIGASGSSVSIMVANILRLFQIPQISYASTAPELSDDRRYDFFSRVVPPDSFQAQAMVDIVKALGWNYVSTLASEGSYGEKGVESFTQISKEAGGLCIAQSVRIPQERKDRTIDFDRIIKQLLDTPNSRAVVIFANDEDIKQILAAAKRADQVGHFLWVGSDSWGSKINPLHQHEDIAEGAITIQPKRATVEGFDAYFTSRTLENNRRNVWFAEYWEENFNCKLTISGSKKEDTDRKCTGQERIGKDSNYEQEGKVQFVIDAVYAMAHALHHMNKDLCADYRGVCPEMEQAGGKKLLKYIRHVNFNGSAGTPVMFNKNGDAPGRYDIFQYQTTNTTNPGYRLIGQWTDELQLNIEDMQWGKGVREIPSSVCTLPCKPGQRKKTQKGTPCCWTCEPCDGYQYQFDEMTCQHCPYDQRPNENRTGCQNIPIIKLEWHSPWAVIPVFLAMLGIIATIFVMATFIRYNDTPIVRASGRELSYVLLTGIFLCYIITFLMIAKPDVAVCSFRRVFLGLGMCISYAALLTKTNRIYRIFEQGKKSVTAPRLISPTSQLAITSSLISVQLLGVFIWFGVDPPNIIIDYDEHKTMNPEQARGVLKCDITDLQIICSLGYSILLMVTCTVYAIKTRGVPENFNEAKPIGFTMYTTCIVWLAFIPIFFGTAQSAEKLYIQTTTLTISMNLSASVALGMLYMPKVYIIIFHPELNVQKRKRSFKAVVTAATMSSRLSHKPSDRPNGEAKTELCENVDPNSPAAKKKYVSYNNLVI
# T2 sequence (P31421 19-872): as the sequence (P31421 19-872) above
# T2 sequence (P35400 35-915): as the sequence (P35400 35-915) above
# Chain of SNAP-mGluR2/SNAP-mGluR2 homodimer (mGluR2/2) (P31421 19-872): as the sequence (P31421 19-872) above
# Chain of SNAP-mGluR7/SNAP-mGluR7 homodimer (mGluR7/7) (P35400 35-915): as the sequence (P35400 35-915) above
smiles,measurement,setting,value
N[C@@H](CCC(=O)O)C(=O)O [glutamate],"Norm. (100 nM Glu), average","[1]; 100 nM Glu normalised to 1 mM Glu, average of cells",0.158
same,"Norm. (1 uM Glu), average","[1]; 1 uM Glu normalised to 1 mM Glu, average of cells",0.4678
same,Norm. (1 uM Glu),"[1]; 1 uM Glu normalised to 1 mM Glu, single cells, listed as Glu",0.3693 and 0.5844 and 0.4728 and 0.4449
same,"Norm. (10 uM), average","[1]; 10 uM Glu normalised to 1 mM Glu, average of cells",0.7782
same,Norm. (10 uM),"[1]; 10 uM Glu normalised to 1 mM Glu, single cells, listed as Glu",0.7837 and 0.9099 and 0.6409
same,"Norm. (100 uM), average","[1]; 100 uM Glu normalised to 1 mM Glu, average of cells",0.9915
same,Norm. (100 uM),"[1]; 100 uM Glu normalised to 1 mM Glu, single cells, listed as Glu",1.055 and 0.9085 and 1.011
same,glutamate GIRK concentration-response relation compared to mGluR2/2,[1],shifted to the left
same,glutamate GIRK concentration-response relation compared to mGluR2/2,[1]; listed as Glutamate,left-shifted
same,activation by glutamate,mGluR5(YADA) homodimer,not be activated
same,"fractional change in FRET (Figure 1c), Average","[2]; 1 mM glutamate, live cells",0.0345
same,"normalized FRET response (Figure 3c titration), AVG","[2]; Glu 1uM, normalized to 10 mM",0.02436
same,"normalized FRET response (Figure 3c titration), AVG",[2]; Glu 5uM,0.1119
same,"normalized FRET response (Figure 3c titration), AVG",[2]; Glu 10uM,0.2744
same,"normalized FRET response (Figure 3c titration), AVG",[2]; Glu 20uM,0.534
same,"normalized FRET response (Figure 3c titration), AVG",[2]; Glu 50uM,0.7966
same,"normalized FRET response (Figure 3c titration), AVG",[2]; Glu 100uM,0.8891
same,"normalized FRET response (Figure 3c titration), AVG",[2]; Glu 200uM,0.9536
same,"normalized FRET response (Figure 3c titration), AVG",[2]; Glu 500uM,0.9786
same,"normalized FRET response (Figure 3c titration), AVG",[2]; Glu 1mM,0.9832
same,"normalized FRET response (Figure 3c titration), AVG",[2]; Glu 10mM (normalization point),1
same,"major high affinity component, share of total ΔFRET",[3]; live-cell ensemble FRET,~ 80%
same,"minor lower affinity component, share of total ΔFRET",[3]; live-cell ensemble FRET,~ 20%
same,"normalized FRET response (Figure 3c titration), AVG","[3]; Glu 1uM, normalized to 10 mM",0.05708
same,"normalized FRET response (Figure 3c titration), AVG",[3]; Glu 2uM,0.1039
same,"normalized FRET response (Figure 3c titration), AVG",[3]; Glu 5uM,0.2535
same,"normalized FRET response (Figure 3c titration), AVG",[3]; Glu 10uM,0.4051
same,"normalized FRET response (Figure 3c titration), AVG",[3]; Glu 20uM,0.6543
same,"normalized FRET response (Figure 3c titration), AVG",[3]; Glu 50uM,0.6971
same,"normalized FRET response (Figure 3c titration), AVG",[3]; Glu 100uM,0.7929
same,"normalized FRET response (Figure 3c titration), AVG",[3]; Glu 200uM,0.7943
same,"normalized FRET response (Figure 3c titration), AVG",[3]; Glu 500uM,0.8921
same,"normalized FRET response (Figure 3c titration), AVG",[3]; Glu 1mM,0.9417
same,"normalized FRET response (Figure 3c titration), AVG",[3]; Glu 2mM,1.009
same,"normalized FRET response (Figure 3c titration), AVG",[3]; Glu 10mM (normalization point),1
same,EC50,[4],38.3 mM and 38 mM
same,occupancy of the low FRET active state,[5]; 10 μM glutamate,~ 50%
same,smFRET level,[5]; 10 mM glutamate,~ 0.2
same,"minor low affinity component, share",[5]; smFRET,~ 20%
same,occupancy of low FRET activated conformation at top of biphasic relation,[5]; smFRET,full occupancy
same,"major high affinity component (single-subunit liganding), share of maximal activation","[5]; smFRET, top of first component at 1 mM glutamate",~ 80%
same,"titration values, single replicates 1-3","[6]; Glu 1e-6, listed as Glu",0.1214 and 0.05844 and 0.0437
same,"titration values, AVG (normalized response)",[6]; Glu 1e-5,0.4456
same,"titration values, single replicates 1-3","[6]; Glu 1e-5, listed as Glu",0.4624 and 0.4291 and 0.4452
same,"titration values, AVG (normalized response)",[6]; Glu 0.0001,0.9358
same,"titration values, single replicates 1-3","[6]; Glu 0.0001, listed as Glu",0.9459 and 0.9335 and 0.9281
same,"titration values, AVG (normalized response)",[6]; Glu 0.001,1.022
same,"titration values, single replicates 1-3","[6]; Glu 0.001, listed as Glu",1.05 and 1.012 and 1.0027
same,"titration values, AVG (normalized response)",[6]; Glu 0.01 (normalisation point),1
same,"titration values, single replicates 1-3",[6]; Glu 0.01 (normalisation point),1
